Test results published in patent publication US20240058344A1, “METHODS OF TREATING NEURODEGENERATIVE DISORDERS AND STAT3-LINKED CANCERS USING SUPPRESSORS OF ELECTRON LEAK” (Cornell University, priority 2020, published 2024).

Legend:
lipocalin-2 = test: Lipocalin-2 protein released by primary astrocytes (ELISA); assay type: cell-based, mice; settings: A1 cocktail, 60 μM, approximately 24 h
Experimental: Astrocytes isolated from P2-P3 mice were treated with A1 cocktail consisting of 30 ng/mL TNF-α, 3 ng/mL IL-1α, and 400 ng/mL Clq, and S3QEL2 (S3, 60 μM) or vehicle (Con) for approximately 24 h. Levels of astrocytic lipocalin-2 protein released into the culture media were analyzed by ELISA. n=4 wells per condition. **p<0.01, ***p<0.001, one-way ANOVA with Dunnett's multiple comparisons test.

Nrf2 = test: Hippocampal RNA levels of Nrf2 in hTauP301S mice; assay type: in vivo; settings: 5 mg/kg/day, six weeks
A-172 glioblastoma cells = test: Glioblastoma cell proliferation, DAPI staining of cell nuclei, A-172; assay type: cell-based, human; settings: 72 h
Experimental: Cell density was measured using DAPI staining of cell nuclei and quantification of fluorescence intensities. n=3 wells per condition. […] STAT3 levels were measured by Western blotting. STAT3 levels were normalized to γ-tubulin levels within each cell lysate and expressed as fold change relative to U-87MG cells. n=4 wells per condition. **p<0.01, ***p<0.001 vs. 0 μM or U-87MG, one-way ANOVA with Dunnett's multiple comparisons test.
Briefly, two complementary methods were used to assess cell proliferation, including the CellTiter-Glo assay and DAPI staining of cell nuclei. The effects of S3QEL2 treatment on A-172, T98G, and U-87 MG cells were measured at different drug concentrations (0, 6, 20, 30, 40, or 50 μM) and time-points after treatment (72 or 96 hours). S3QEL2 inhibits proliferation of A-172 and T98G glioblastoma cells in a highly dose-dependent manner and these effects are similar at different time-points (FIG. 15A-B).

STAT3 = test: Phospho-STAT3 and total STAT3 in primary astrocytes (Western blotting); assay type: cell-based, mice; settings: for Phosphorylated STAT3 levels / Total STAT3 levels: S3QEL2 60 μM
Experimental: (FIGS. 11A-11B) Astrocytes isolated from P2-P3 mice were treated with oligomeric Aβ (3 μM) and S3QEL2 (S3, 20 μM) or vehicle (V) for 24 h and analyzed by qRT-PCR (FIG. 11A) or Western blotting (B) and normalized to vehicle controls. (FIG. 11B) Phospho-STAT3 levels were normalized to total STAT3 per sample. n=3 wells per condition; *p<0.05, **p<0.01, ***p<0.001, ANOVA with Dunnett's test.
(FIGS. 12A-12B) Astrocytes isolated from P2-P3 mice were treated with oligomeric Aβ (3 μM) (A) or A1 cocktail consisting of 30 ng/mL TNF-α, 3 ng/mL IL-1α, and 400 ng/mL Clq (B), and S3QEL2 (S3, 60 μM) or vehicle (Con) for indicated durations and analyzed by Western blotting. Phospho-STAT3 levels were normalized to total STAT3 per sample, and total STAT3 levels were normalized to γ-tubulin levels per sample. n≥3 wells per condition; *p<0.05, **p<0.01, ***p<0.001, one-way ANOVA with Tukey's multiple comparisons test.
(FIG. 17A) Astrocytes isolated from P2-P3 mice were treated with A1 cocktail consisting of 30 ng/ml TNF-α, 3 ng/ml IL-1α, and 400 ng/ml Clq, and S3QEL1.2 (3 μM) or vehicle for approximately 6 h and analyzed by Western blotting. Phospho-STAT3 levels were normalized to total STAT3 per sample. n=6 wells per condition. **p<0.01, ***p<0.001, one-way ANOVA with Dunnett's multiple comparisons test. (FIG. 17B) Astrocytes isolated from P2-P3 mice were treated with A1 cocktail consisting of 30 ng/ml TNF-α, 3 ng/ml IL-1α, and 400 ng/ml Clq for 24 h, and analyzed for levels of released H2O2 using Amplex UltraRed, a fluorogenic substrate that is a highly sensitive indicator of H2O2, in the presence of horseradish peroxidase and superoxide dismutase. n=6 wells per condition. *p=0.01, Student's t test. (FIG. 17C) Astrocytes isolated from P2-P3 mice were treated with vehicle or 3 ng/ml IL-1α and either S3QEL2 (20 μM), S3QEL1.2 (1 μM), or vehicle for approximately 24 h, and analyzed for levels of released H2O2 using Amplex UltraRed. n=6 wells per condition. *p<0.05, **p<0.01, ***p<0.001, two-way ANOVA with Bonferroni's multiple comparisons test.
Similar to oligomeric Aβ, A1 cocktail (which is a mixture of TNF-α, IL-1α, and Clq) induced astrocytic reactivity that is associated with synaptic damage and neurodegeneration.
Given that this compound has a different chemical structure, these findings indicate that S3QELs suppress astrocytic reactivity and neuroinflammatory responses through modulation of complex III ROS rather than modulation of other off-target or nonspecific mechanisms.

primary neurons = test: Tau-associated neuronal damage in primary neurons cultured alone (AAV-TauP301S, MAP2/NeuN immunostaining); assay type: cell-based, mouse; settings: 10 μM; AAV human P301S tau
Experimental: Primary neurons were immunostained for MAP2 or NeuN following mock treatment or transduction with AAV encoding human P301S mutant tau under the synapsin-1 promoter. Neurons were cultured without (FIGS. 9A-9B) or with (FIGS. 9C-9D) primary mouse microglia. S3QEL2 (S3, 10 μM). n=4 per condition.
To begin dissecting the mechanisms by which S3QEL2 affects neural cell function and disease-linked processes, studies in primary cultures were conducted. Isolated mouse-derived neurons were transduced with adeno-associated viral vectors (AAVs) encoding wild-type or the P301S mutant form of the human tau protein (FIG. 8A). […] However, S3QEL reduced neuronal damage in the presence of astrocytes (approx. 30% astrocytes, FIG. 10A). Tau can also promote aberrant neuronal activity and hypersynchrony. S3QEL reduced aberrant neuronal firing in tau-transduced neurons co-cultured with astrocytes (FIGS. 10B-10C).

[1] = test system: GFAP; phospho-serine 202/205 tau; test: Immunofluorescent staining of GFAP and phospho-serine 202/205 tau (AT8) in hTauP301S mice; assay type: in vivo; settings: 6 weeks oral dosing
Description: Immunofluorescent staining and quantification of astrocytic marker GFAP (red, FIG. 4A) and phospho-serine 202/205 tau (AT8, green, FIG. 4B) in male nontransgenic (NTG) and hTauP301S mice after 6 weeks of oral dosing with S3QEL2 or vehicle. (FIGS. 4C-4E) n=12-16 mice per group; *p<0.05, **p<0.01, ***p<0.001, ANOVA with Bonferroni's test.
As assessed by immunolabeling, hTauP301S mice treated with S3QEL2 also had reduced levels of glial fibrillary acidic protein (GFAP)-positive astrogliosis and phosphorylated tau (FIG. 7). Western blotting confirmed reduced levels of phosphorylated but not total tau in these mice (FIG. 5).

[2] = A1 cocktail (TNF-α, IL-1α, Clq)

CCCN(CCC)c1ncnc2c1cnn2-c1ccc(C)c(C)c1 [S3QEL2]
Release of lipocalin-2 protein into culture media (lipocalin-2): inhibited the release of lipocalin-2
Hippocampal Nrf2 RNA levels (Nrf2): reduced
Cell proliferation (cell density, DAPI staining) (A-172 glioblastoma cells): reduces proliferation
Phosphorylated STAT3 levels (STAT3; [2]): reduced
Total STAT3 levels (STAT3; [2]): reduced
Phospho-STAT3 levels normalized to total STAT3 (STAT3; oligomeric Aβ 3 μM, S3QEL2 20 μM, 24 h): reduced
Phosphorylated STAT3 levels (STAT3; oligomeric Aβ 3 μM): reduced
Total STAT3 levels (STAT3; oligomeric Aβ 3 μM): reduced
Tau-associated neuronal damage, neurons cultured alone (primary neurons): did not affect tau-associated neuronal damage
GFAP-positive astrogliosis (immunolabeling) [1]: reduced
Phosphorylated tau (AT8 immunolabeling) [1]: reduced
